Reference: US20090118331A1, “Use of Lobeline Epimers in the Treatment of Central Nervous System Diseases, Pathologies, and Drug Abuse” (priority 2007, published 2009)

Key:
[1] = Lobeline conversion to epimer in the buffer system used at 37° C. in the VMAT2 uptake study (HPLC); assay type: physicochemical; conditions: for Lobeline %: VMAT2 uptake buffer, 37° C.
[2] = Lobeline epimerization in pH 7.4 phosphate buffer control; conditions: after 2 hours, with impurity
Description: In order to determine the tendency of lobeline to undergo epimerization in the HEPES buffer employed in the 25° C. [^3H]DTBZ binding study and the 37° C. VMAT2 uptake studies previously described, analogous solution epimerization experiments were conducted using the corresponding conditions for each individual assay. […] As this dynamic phenomenon occurs, the ratio of lobeline to lobeline epimer in solution naturally changes over time. Further, depending upon the solution conditions, the rate and extent of epimerization may vary; thus, a ratio of lobeline to epimer, if achieved, may occur at various time points. After 2 hours, the 25° C. […] The epimerization of lobeline in the 37° C.

in vivo = conditions: rat, in vivo
Description: Here, serial doses of lobeline were administered to male and female rats intravenously, subcutaneously or orally, and the pharmacokinetic profiles of the parent lobeline and its epimer were monitored in plasma.

CN1[C@@H](CC(=O)c2ccccc2)CCC[C@H]1C[C@H](O)c1ccccc1 [Lobeline, 2-[6S-(2S-hydroxy-2-phenyl-ethyl)-1-methyl-piperidin-2R-yl]-1-phenyl-ethanone]
component content of solution ([1]; 37° C. uptake buffer with ATP-Mg2+ cofactor reduced from 2 mM to 0.4 mM, after 2 hours, with impurity): 66% | final component concentration (as a function of the area under the curve) ([1]; VMAT2 uptake buffer (HEPES), 2 hour incubation at 37° C.): 69% | Lobeline % ([1]; T0, sample age 0:01): 98.2% | Lobeline % ([1]; T5, sample age 0:05): 96.7% | Lobeline % ([1]; T10, sample age 0:10): 94.4% | Lobeline % ([1]; T15, sample age 0:15): 91.2% | Lobeline % ([1]; T25, sample age 0:25): 86.5% | Lobeline % ([1]; T30, sample age 0:30): 84.7% | Lobeline % ([1]; T35, sample age 0:35): 83.4% | Lobeline % ([1]; T40, sample age 0:40): 81.8% | Lobeline % ([1]; T45, sample age 0:45): 80.6% | Lobeline % ([1]; T50, sample age 0:50): 79.3% | Lobeline % ([1]; T55, sample age 0:55): 78.5% | Lobeline % ([1]; T60, sample age 1:00): 77.2% | Lobeline % ([1]; T70, sample age 1:10): 75.0% | Lobeline % ([1]; T80, sample age 1:20): 73.1% | Lobeline % ([1]; T90, sample age 1:31): 72.2% | Lobeline % ([1]; T100, sample age 1:40): 71.1% | Lobeline % ([1]; T110, sample age 1:50): 69.6% | Lobeline % ([1]; T120, sample age 2:00): 68.5% | component content of solution ([2]; pH 7.4 phosphate buffer control, same temperature as 25° C. binding buffer): 64% | component content of solution ([2]; phosphate buffer control for the 37° C. VMAT2 uptake buffer): 62% | AUC(0-inf) (in vivo; female, iv, 2 mg/kg): 134 ng·h/mL | AUC(0-t) (in vivo; female, iv, 2 mg/kg): 133 ng·h/mL | Cmax (in vivo; female, iv, 2 mg/kg): 106 ng/mL | MRT last (in vivo; female, iv, 2 mg/kg): 1.72 h | Tmax (in vivo; female, iv, 2 mg/kg): 0.083 h | Vd (in vivo; female, iv, 2 mg/kg): 27.2 L/kg | clearance (in vivo; female, iv, 2 mg/kg): 0.248 mL/min/kg | half-life (in vivo; female, iv, 2 mg/kg): 1.85 h | AUC(0-inf) (in vivo; female, po, 20 mg/kg): 64.5 ng·h/mL | AUC(0-t) (in vivo; female, po, 20 mg/kg): 62.7 ng·h/mL | Cmax (in vivo; female, po, 20 mg/kg): 42.5 ng/mL | MRT last (in vivo; female, po, 20 mg/kg): 1.92 h | Tmax (in vivo; female, po, 20 mg/kg): 0.5 h | half-life (in vivo; female, po, 20 mg/kg): 2.29 h | AUC(0-inf) (in vivo; female, sc, 3 mg/kg): 193 ng·h/mL | AUC(0-t) (in vivo; female, sc, 3 mg/kg): 191 ng·h/mL | Cmax (in vivo; female, sc, 3 mg/kg): 142 ng/mL | MRT last (in vivo; female, sc, 3 mg/kg): 1.42 h | Tmax (in vivo; female, sc, 3 mg/kg): 0.25 h | half-life (in vivo; female, sc, 3 mg/kg): 1.14 h | AUC(0-inf) (in vivo; male, iv, 2 mg/kg): 135 ng·h/mL | AUC(0-t) (in vivo; male, iv, 2 mg/kg): 134 ng·h/mL | Cmax (in vivo; male, iv, 2 mg/kg): 144 ng/mL | MRT last (in vivo; male, iv, 2 mg/kg): 1.54 h | Tmax (in vivo; male, iv, 2 mg/kg): 0.083 h | Vd (in vivo; male, iv, 2 mg/kg): 23.8 L/kg | clearance (in vivo; male, iv, 2 mg/kg): 0.247 mL/min/kg | half-life (in vivo; male, iv, 2 mg/kg): 1.68 h | AUC(0-inf) (in vivo; male, po, 20 mg/kg): 105 ng·h/mL | AUC(0-t) (in vivo; male, po, 20 mg/kg): 104 ng·h/mL | Cmax (in vivo; male, po, 20 mg/kg): 91.2 ng/mL | MRT last (in vivo; male, po, 20 mg/kg): 1.88 h | Tmax (in vivo; male, po, 20 mg/kg): 0.5 h | half-life (in vivo; male, po, 20 mg/kg): 1.97 h | AUC(0-inf) (in vivo; male, sc, 3 mg/kg): 191 ng·h/mL | AUC(0-t) (in vivo; male, sc, 3 mg/kg): 190 ng·h/mL | Cmax (in vivo; male, sc, 3 mg/kg): 162 ng/mL | MRT last (in vivo; male, sc, 3 mg/kg): 1.35 h | Tmax (in vivo; male, sc, 3 mg/kg): 0.083 h | half-life (in vivo; male, sc, 3 mg/kg): 1.18 h
